Experimental data from patent US10844077B2, “Thiazolyl-containing compounds for treating proliferative diseases” (Dana-Farber Cancer Institute, Inc., priority 2014, dated 2020).

Assays:
Test in all cases: KINATIV assay of compounds I-3 and I-9, lysate directly labeled with ATP-biotin probe (no GF)
Type in all cases: cell-based
[1] = molecular target: kinases in BCWM.1 cells (Homo sapiens, UniProt O00329); conditions: PIK3CD; ATP; 1 μM, 90 min; no GF
Experimental: (§1) The cells were harvested and lysed. […] Bound kinases were identified and quantitated by ACTIVX as described in Patricelli et al., Biochemistry, 2007, 46(2): 350-358. The compounds were tested in duplicates against duplicate or quadruplicate control samples.

[2] = molecular target: kinases in BCWM.1 cells (Homo sapiens, UniProt O00750); conditions: PIK3C2B; ATP; 1 μM, 90 min; no GF
Experimental: as §1

[3] = molecular target: kinases in BCWM.1 cells (Homo sapiens, UniProt O75385); conditions: ULK1; Lys2; 1 μM, 90 min; no GF
Experimental: as §1

[4] = molecular target: kinases in BCWM.1 cells (Homo sapiens, UniProt P12931); conditions: SRC; Lys1; 1 μM, 90 min; no GF
Experimental: as §1

[5] = molecular target: kinases in BCWM.1 cells (Homo sapiens, UniProt P19525); conditions: PKR; Lys2; 1 μM, 90 min; no GF
Experimental: as §1

[6] = molecular target: kinases in BCWM.1 cells (Homo sapiens, UniProt P21127); conditions: PITSLRE; Lys2; 1 μM, 90 min; no GF
Experimental: as §1

[7] = molecular target: kinases in BCWM.1 cells (Homo sapiens, UniProt P30291); conditions: Wee1; Lys2; 1 μM, 90 min; no GF
Experimental: as §1

[8] = molecular target: kinases in BCWM.1 cells (Homo sapiens, UniProt P42680); conditions: TEC; Activation Loop; 1 μM, 90 min; no GF
Experimental: as §1

[9] = molecular target: kinases in BCWM.1 cells (Homo sapiens, UniProt P43405); conditions: SYK; Activation Loop; 1 μM, 90 min; no GF
Experimental: as §1

[10] = molecular target: kinases in BCWM.1 cells (Homo sapiens, UniProt P48736); conditions: PIK3CG; ATP; 1 μM, 90 min; no GF
Experimental: as §1

[11] = molecular target: kinases in BCWM.1 cells (Homo sapiens, UniProt P51955); conditions: NEK2; Lys2; 1 μM, 90 min; no GF
Experimental: as §1

[12] = molecular target: kinases in BCWM.1 cells (Homo sapiens, UniProt Q00536)
Experimental: as §1

[13] = molecular target: kinases in BCWM.1 cells (Homo sapiens, UniProt Q16539); conditions: p38a, 1 μM, 90 min, no GF
Experimental: as §1

[14] = molecular target: kinases in BCWM.1 cells (Homo sapiens, UniProt Q58A45); conditions: PAN3; Protein Kinase Domain; 1 μM, 90 min; no GF
Experimental: as §1

[15] = molecular target: kinases in BCWM.1 cells (Homo sapiens, UniProt Q86UE8); conditions: TLK2; Lys2; 1 μM, 90 min; no GF
Experimental: as §1

[16] = molecular target: kinases in BCWM.1 cells (Homo sapiens, UniProt Q8TDX7); conditions: NEK7; Lys1; 1 μM, 90 min; no GF
Experimental: as §1

[17] = molecular target: kinases in BCWM.1 cells (Homo sapiens, UniProt Q96BR1); conditions: SGK3; Lys1; 1 μM, 90 min; no GF
Experimental: as §1

[18] = molecular target: kinases in BCWM.1 cells (Homo sapiens, UniProt Q96PY6); conditions: NEK1; Lys2; 1 μM, 90 min; no GF
Experimental: as §1

[19] = molecular target: kinases in BCWM.1 cells (Homo sapiens, UniProt Q96S44); conditions: PRPK; ATP Loop; 1 μM, 90 min; no GF
Experimental: as §1

[20] = molecular target: kinases in BCWM.1 cells (Homo sapiens, UniProt Q9BYT3); conditions: STK33; Lys2; 1 μM, 90 min; no GF
Experimental: as §1

[21] = molecular target: kinases in BCWM.1 cells (Homo sapiens, UniProt Q9UBE8); conditions: NLK; Lys2; 1 μM, 90 min; no GF
Experimental: as §1

[22] = molecular target: kinases in BCWM.1 cells (Homo sapiens, UniProt Q9UBF8); conditions: PI4KB; ATP; 1 μM, 90 min; no GF
Experimental: as §1

[23] = molecular target: kinases in BCWM.1 cells (Homo sapiens, UniProt Q9UBS0); conditions: p70S6Kb; Lys2; 1 μM, 90 min; no GF
Experimental: as §1

[24] = molecular target: kinases in BCWM.1 cells (Homo sapiens, UniProt Q9UHD2); conditions: TBK1; Lys1; 1 μM, 90 min; no GF
Experimental: as §1

[25] = molecular target: kinases in BCWM.1 cells (Homo sapiens, UniProt Q9Y2I7); conditions: PIP5K3; ATP; 1 μM, 90 min; no GF
Experimental: as §1

[26] = tested on: kinases in BCWM.1 cells; conditions: 1 μM, 90 min, no GF
Experimental: as §1

kinases in BCWM.1 cells (Homo sapiens, UniProt Q16539), sequence (Q16539 2-360 limits assumed): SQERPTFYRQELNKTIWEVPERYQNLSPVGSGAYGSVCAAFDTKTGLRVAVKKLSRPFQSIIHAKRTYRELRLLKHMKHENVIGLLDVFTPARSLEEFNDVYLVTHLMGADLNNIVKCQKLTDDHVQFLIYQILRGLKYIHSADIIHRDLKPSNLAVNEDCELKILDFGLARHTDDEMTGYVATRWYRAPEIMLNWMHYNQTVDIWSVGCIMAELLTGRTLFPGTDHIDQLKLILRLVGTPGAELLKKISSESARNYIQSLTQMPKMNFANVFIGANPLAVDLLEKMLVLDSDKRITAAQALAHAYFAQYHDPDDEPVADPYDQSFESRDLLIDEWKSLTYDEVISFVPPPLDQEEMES
kinases in BCWM.1 cells (Homo sapiens, UniProt P19525), sequence (P19525 2-551 limits assumed): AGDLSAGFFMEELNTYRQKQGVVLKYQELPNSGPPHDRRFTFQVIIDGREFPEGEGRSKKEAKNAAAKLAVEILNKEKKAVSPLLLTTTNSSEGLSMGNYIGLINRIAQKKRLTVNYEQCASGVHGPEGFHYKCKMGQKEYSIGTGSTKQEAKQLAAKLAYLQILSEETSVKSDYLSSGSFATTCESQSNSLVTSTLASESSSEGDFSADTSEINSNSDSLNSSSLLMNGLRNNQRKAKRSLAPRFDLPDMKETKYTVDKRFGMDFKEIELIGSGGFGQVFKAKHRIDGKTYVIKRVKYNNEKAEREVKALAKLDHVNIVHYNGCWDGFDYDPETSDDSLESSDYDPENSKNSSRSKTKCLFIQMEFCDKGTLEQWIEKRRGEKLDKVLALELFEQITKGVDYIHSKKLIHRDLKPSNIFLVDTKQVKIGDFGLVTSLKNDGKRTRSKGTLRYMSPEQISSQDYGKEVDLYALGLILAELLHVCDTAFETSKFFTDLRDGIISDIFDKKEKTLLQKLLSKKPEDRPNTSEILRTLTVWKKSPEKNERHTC
kinases in BCWM.1 cells (Homo sapiens, UniProt Q9UBF8), sequence (Q9UBF8 2-816 limits assumed): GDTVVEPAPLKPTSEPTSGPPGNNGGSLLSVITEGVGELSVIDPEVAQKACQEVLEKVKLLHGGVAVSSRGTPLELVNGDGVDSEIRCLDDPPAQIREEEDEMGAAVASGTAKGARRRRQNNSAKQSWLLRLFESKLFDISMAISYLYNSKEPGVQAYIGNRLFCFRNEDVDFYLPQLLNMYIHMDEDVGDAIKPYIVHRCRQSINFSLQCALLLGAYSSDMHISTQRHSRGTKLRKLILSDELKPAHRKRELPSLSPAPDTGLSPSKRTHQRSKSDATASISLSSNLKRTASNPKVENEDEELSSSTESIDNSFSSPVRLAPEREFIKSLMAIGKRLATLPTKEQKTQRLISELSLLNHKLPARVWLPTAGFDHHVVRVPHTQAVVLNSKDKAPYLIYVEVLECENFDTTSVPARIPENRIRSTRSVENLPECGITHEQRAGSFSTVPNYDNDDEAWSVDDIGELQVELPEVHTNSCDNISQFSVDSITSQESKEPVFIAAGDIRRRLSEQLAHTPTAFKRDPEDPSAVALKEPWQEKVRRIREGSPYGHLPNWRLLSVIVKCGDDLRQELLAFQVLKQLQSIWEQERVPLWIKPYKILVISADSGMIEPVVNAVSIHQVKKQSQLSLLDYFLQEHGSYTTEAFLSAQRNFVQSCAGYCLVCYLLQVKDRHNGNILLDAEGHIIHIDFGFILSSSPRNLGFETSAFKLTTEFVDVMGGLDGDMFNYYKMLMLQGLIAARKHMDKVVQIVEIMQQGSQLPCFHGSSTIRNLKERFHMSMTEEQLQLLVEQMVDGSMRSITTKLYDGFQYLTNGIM
kinases in BCWM.1 cells (Homo sapiens, UniProt P12931), sequence (P12931 2-536 limits assumed): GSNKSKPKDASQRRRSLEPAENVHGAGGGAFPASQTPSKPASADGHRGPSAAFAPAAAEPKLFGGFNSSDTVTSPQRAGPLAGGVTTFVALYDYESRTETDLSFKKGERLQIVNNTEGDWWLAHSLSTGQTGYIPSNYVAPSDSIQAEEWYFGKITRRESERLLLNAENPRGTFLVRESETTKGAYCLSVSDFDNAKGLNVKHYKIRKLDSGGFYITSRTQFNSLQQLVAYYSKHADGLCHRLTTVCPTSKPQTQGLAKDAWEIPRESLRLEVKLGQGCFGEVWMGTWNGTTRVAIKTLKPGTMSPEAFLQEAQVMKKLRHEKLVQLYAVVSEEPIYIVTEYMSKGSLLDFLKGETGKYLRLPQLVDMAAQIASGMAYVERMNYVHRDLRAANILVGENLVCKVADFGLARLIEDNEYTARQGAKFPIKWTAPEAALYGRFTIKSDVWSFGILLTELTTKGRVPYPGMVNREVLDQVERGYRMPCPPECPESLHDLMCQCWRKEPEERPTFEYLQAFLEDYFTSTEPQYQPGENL
kinases in BCWM.1 cells (Homo sapiens, UniProt Q9Y2I7), sequence (Q9Y2I7 2-2098 limits assumed): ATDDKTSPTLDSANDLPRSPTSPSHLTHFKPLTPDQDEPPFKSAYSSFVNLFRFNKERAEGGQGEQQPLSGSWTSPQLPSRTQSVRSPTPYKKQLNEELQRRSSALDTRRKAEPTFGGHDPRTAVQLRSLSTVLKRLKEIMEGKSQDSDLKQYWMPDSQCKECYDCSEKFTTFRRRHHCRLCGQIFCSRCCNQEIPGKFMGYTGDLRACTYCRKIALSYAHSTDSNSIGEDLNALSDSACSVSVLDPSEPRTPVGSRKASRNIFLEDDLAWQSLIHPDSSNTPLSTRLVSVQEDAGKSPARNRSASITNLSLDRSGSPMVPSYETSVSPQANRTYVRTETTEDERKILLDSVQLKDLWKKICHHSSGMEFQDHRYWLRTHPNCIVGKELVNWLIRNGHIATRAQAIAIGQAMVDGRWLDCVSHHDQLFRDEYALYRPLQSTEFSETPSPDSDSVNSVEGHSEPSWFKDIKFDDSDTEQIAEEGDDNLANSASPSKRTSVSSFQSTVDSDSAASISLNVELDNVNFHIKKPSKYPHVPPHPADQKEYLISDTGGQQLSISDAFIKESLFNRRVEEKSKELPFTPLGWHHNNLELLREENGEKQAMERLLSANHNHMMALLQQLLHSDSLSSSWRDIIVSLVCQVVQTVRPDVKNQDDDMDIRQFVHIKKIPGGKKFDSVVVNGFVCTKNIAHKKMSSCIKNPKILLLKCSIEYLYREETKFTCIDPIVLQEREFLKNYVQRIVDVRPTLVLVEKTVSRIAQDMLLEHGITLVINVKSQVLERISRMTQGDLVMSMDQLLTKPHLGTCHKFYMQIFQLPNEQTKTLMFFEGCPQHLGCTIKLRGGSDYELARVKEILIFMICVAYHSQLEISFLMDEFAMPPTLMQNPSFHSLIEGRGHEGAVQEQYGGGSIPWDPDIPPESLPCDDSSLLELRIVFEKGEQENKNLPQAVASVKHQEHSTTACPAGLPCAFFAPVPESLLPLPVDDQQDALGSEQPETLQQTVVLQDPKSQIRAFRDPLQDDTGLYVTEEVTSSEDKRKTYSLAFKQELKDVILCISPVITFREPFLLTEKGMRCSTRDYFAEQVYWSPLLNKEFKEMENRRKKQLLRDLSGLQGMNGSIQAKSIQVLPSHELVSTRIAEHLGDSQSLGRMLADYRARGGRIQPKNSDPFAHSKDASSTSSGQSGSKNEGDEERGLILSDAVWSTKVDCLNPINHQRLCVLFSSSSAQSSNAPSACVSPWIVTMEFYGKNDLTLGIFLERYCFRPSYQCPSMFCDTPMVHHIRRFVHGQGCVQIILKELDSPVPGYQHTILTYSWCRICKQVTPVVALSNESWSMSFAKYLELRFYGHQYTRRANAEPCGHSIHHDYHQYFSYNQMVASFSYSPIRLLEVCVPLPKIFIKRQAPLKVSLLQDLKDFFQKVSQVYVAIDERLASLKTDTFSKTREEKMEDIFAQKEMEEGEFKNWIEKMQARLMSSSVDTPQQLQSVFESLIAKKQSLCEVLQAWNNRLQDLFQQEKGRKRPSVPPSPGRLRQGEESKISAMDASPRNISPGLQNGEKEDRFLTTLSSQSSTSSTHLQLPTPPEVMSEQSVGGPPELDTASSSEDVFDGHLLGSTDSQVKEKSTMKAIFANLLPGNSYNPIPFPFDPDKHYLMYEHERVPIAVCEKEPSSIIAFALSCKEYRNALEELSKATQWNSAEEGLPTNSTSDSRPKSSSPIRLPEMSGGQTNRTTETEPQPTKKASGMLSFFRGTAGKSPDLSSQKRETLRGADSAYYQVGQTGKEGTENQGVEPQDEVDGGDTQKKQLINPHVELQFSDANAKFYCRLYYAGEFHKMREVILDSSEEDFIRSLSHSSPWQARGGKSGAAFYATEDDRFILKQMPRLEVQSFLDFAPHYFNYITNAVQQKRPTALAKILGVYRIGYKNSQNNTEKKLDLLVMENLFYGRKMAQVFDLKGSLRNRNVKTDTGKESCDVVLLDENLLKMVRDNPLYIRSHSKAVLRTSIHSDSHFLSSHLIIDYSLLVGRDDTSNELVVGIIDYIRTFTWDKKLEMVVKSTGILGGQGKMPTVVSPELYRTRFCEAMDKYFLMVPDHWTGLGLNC

SMILES: CCC(=O)N1CC[C@H](Nc2nccc(Nc3ncc(C(=O)Nc4c(C)cccc4C)s3)n2)C1 [Example I-9]
- % change of MS signal compared to control sample [1]: −19.7%
- % change of MS signal compared to control sample [2]: 28.5%
- % change of MS signal compared to control sample [3]: −5.7%
- % change of MS signal compared to control sample [4]: 78.6%
- % change of MS signal compared to control sample [5]: −8%
- % change of MS signal compared to control sample [6]: −10.8%
- % change of MS signal compared to control sample [7]: 14.3%
- % change of MS signal compared to control sample [8]: 97.4%
- % change of MS signal compared to control sample [9]: −6.5%
- % change of MS signal compared to control sample [10]: −15.1%
- % change of MS signal compared to control sample [11]: −8.2%
- % change of MS signal compared to control sample [12]: 4.1%
- % change of MS signal compared to control sample ([13]; Lys2): −7.8%
- % change of MS signal compared to control sample ([13]; Protein Kinase Domain): −2.9%
- % change of MS signal compared to control sample [14]: 23.2%
- % change of MS signal compared to control sample [15]: −13.3%
- % change of MS signal compared to control sample [16]: 11.3%
- % change of MS signal compared to control sample [17]: 1.1%
- % change of MS signal compared to control sample [18]: −3.7%
- % change of MS signal compared to control sample [19]: −2%
- % change of MS signal compared to control sample [20]: 20.2%
- % change of MS signal compared to control sample [21]: −1.2%
- % change of MS signal compared to control sample [22]: −24.3%
- % change of MS signal compared to control sample [23]: 24.3%
- % change of MS signal compared to control sample [24]: 23%
- % change of MS signal compared to control sample [25]: −6.7%
- % change of MS signal compared to control sample ([26]; MST4, YSK1, Lys2): 9.7%
- % change of MS signal compared to control sample ([26]; NEK6, NEK7, Lys2): −3.3%
- % change of MS signal compared to control sample ([26]; PCTAIRE2, PCTAIRE3, Lys1): −4.7%
- % change of MS signal compared to control sample ([26]; PI4KA, PI4KAP2, ATP): 20.3%
- % change of MS signal compared to control sample ([26]; PKACa, PKCb, Lys2): 16.9%
- % change of MS signal compared to control sample ([26]; ROCK1, ROCK2, Lys2): 24.4%
- % change of MS signal compared to control sample ([26]; RSK1 domain1, RSK2 domain1, RSK3 domain1, Lys2): −12%
- % change of MS signal compared to control sample ([26]; SRPK1, SRPK2, Lys1): 10%
- % change of MS signal compared to control sample ([26]; TAO1, TAO3, Lys2): 5.1%
- % change of MS signal compared to control sample ([26]; Wnk1, Wnk2, Wnk3, Lys2): −10.8%
- % change of MS signal compared to control sample ([26]; Wnk1, Wnk2, ATP Loop): −6.3%
- % change of MS signal compared to control sample ([26]; ZC1/HGK, ZC2/TNIK, ZC3/MINK, Lys2): −2%
- % change of MS signal compared to control sample ([26]; p38d, p38g, Lys2): −8.8%
